Tests used:
TAF1-BD2 = TAF1-BD2 (Homo sapiens, UniProt P21675); assay: TAF1-BD2 TR-FRET Binding Assay; conditions: read-out: TAF1-BD2 HTRF IC50
Method: IC50 Measurements for Inhibitors Using TAF1-BD2 TR-FRET Binding Assay
His/Flag epitope tagged TAF1-BD21504-1635 was cloned, expressed, and purified to homogeneity. TAF1-BD2 binding and inhibition was assessed by monitoring the engagement of a biotinylated small molecule compound 1000 with the target using the TR-FRET assay technology (Perkin-Elmer). Specifically, in a 384 well ProxiPlate, TAF1-BD2 (0.012 uM final) in 50 mM HEPES (pH 7.5; final), 50 mM NaCl (final), 1 mM TCEP (final), 0.1 mg/mL BSA (final), and 0.069 mM Brij-35 (final) was added either in the presence of DMSO (final 0.2% DMSO) or compound dilution series in DMSO. After a 10 minute incubation at room temperature, biotin-ligand (0.04 uM final) was added. After 10 minutes incubation at room temperature, a mixture Eu-W1024 Anti-6×His antibody (Perkin Elmer AD0110) and SureLight™ Streptavidin-Allophycocyanin (SA-APC, Perkin Elmer CR130-100) were added to a final concentration of 0.2 nM antibody and 0.025 uM SA-APC, respectively. After forty minutes of equilibration at room temperature, the plates were read on an Envision instrument and IC50s calculated using a four parameter logistic model (XLFIT).

TAF1-BD1 = TAF1-BD1 (Homo sapiens, UniProt P21675); assay: TAF1-BD1 TR-FRET Binding Assay; conditions: read-out: TAF1-BD1 HTRF IC50
Method: IC50 Measurements for Inhibitors Using TAF1-BD1 TR-FRET Binding Assay
His/Flag epitope tagged TAF1-BD11381-1497 was cloned, expressed, and purified to homogeneity. TAF1-BD binding and inhibition was assessed by monitoring the engagement of a biotinylated small molecule compound 1000 with the target using the TR-FRET assay technology (Perkin-Elmer). Specifically, in a 384 well ProxiPlate, TAF1-BDI (0.08 uM final) in 50 mM HEPES (pH 7.5; final), 50 mM NaCl (final), 1 mM TCEP (final), 0.1 mg/mL BSA (final), and 0.069 mM Brij-35 (final) was added either in the presence of DMSO (final 0.2% DMSO) or compound dilution series in DMSO. After a 10 minute incubation at room temperature, biotin-ligand (0.08 uM final) was added. After 10 minutes incubation at room temperature, a mixture Eu-W1024 Anti-6×His antibody (Perkin Elmer ADO 110) and SureLight™ Streptavidin-Allophycocyanin (SA-APC, Perkin Elmer CR130-100) were added to final concentrations of 0.2 nM antibody and 0.05 uM SA-APC, respectively. After forty minutes of equilibration at room temperature, the plates were read on an Envision instrument and IC50s calculated using a four parameter logistic model (XLFIT).

Row | SMILES | IC50 (TAF1-BD2) | IC50 (TAF1-BD1)
1 | Cc1[nH]c2c(=O)n(C)cc(C#CC(O)(c3ccccc3)C(F)(F)F)c2c1C(=O)OCc1ccccc1C#N (stereo not drawn) [Example 107, (2-cyanophenyl)methyl 2,6-dimethyl-7-oxo-4-(4,4,4-trifluoro-3-hydroxy-3-phenyl-but-1-ynyl)-1H-pyrrolo[2,3-c]pyridine-3-carboxylate] | 0.344 µM | 1.63 µM
2 | CCOC(=O)c1c(C)[nH]c2c(=O)n(C)cc(C#CC(O)(c3ccccc3)C(F)(F)F)c12 (single isomer, unassigned) [Example 91a, ethyl 2,6-dimethyl-7-oxo-4-(4,4,4-trifluoro-3-hydroxy-3-phenyl-but-1-ynyl)-1H-pyrrolo[2,3-c]pyridine-3-carboxylate] | 0.206 µM | 0.749 µM
3 | CCOC(=O)c1c(C)[nH]c2c(=O)n(C)cc(C#CC(O)(c3cccc(N(C)C)c3)C(F)(F)F)c12 (stereo not drawn) [Example 39, ethyl 4-[3-[3-(dimethylamino)phenyl]-4,4,4-trifluoro-3-hydroxy-but-1-ynyl]-2,6-dimethyl-7-oxo-1H-pyrrolo[2,3-c]pyridine-3-carboxylate] | 0.0769 µM | 0.525 µM
4 | CCOC(=O)c1c(C)[nH]c2c(=O)n(C)cc(C#CC3(O)CCc4cccnc43)c12 (single isomer, unassigned) [Example 99b, ethyl 4-[2-(7-hydroxy-5,6-dihydrocyclopenta[b]pyridin-7-yl)ethynyl]-2,6-dimethyl-7-oxo-1H-pyrrolo[2,3-c]pyridine-3-carboxylate] | 0.0844 µM | 0.881 µM
5 | CCOC(=O)c1c(C)[nH]c2c(=O)n(C)cc(C#CC(O)(c3cccc(Oc4ccccc4)c3)C(F)(F)F)c12 (stereo not drawn) [Example 90, ethyl 2,6-dimethyl-7-oxo-4-[4,4,4-trifluoro-3-hydroxy-3-(3-phenoxyphenyl)but-1-ynyl]-1H-pyrrolo[2,3-c]pyridine-3-carboxylate] | 0.699 µM | 2.28 µM
6 | CCOC(=O)c1c(C)[nH]c2c(=O)n(C)cc(C#Cc3cccnc3)c12 [Example 61, ethyl 2,6-dimethyl-7-oxo-4-[2-(3-pyridyl)ethynyl]-1H-pyrrolo[2,3-c]pyridine-3-carboxylate] | 0.0477 µM | 0.292 µM
7 | COc1ccccc1COC(=O)c1c(C)[nH]c2c(=O)n(C)cc(C#CC(C)(C)O)c12 [Example 113, (2-methoxyphenyl)methyl-4-(3-hydroxy-3-methyl-but-1-ynyl)-2,6-dimethyl-7-oxo-1H-pyrrolo[2,3-c]pyridine-3-carboxylate] | 0.024 µM | 0.123 µM
8 | CCOC(=O)c1c(C)[nH]c2c(=O)n(C)cc(C#Cc3cccc(O)c3)c12 [Example 63, ethyl 4-[2-(3-hydroxyphenyl)ethynyl]-2,6-dimethyl-7-oxo-1H-pyrrolo[2,3-c]pyridine-3-carboxylate] | 0.0385 µM | 0.195 µM
9 | C=CCCn1cc(C#C[C@](C)(O)c2cc(C)on2)c2c(C(=O)OCC)c(C)[nH]c2c1=O [Example 71, ethyl 6-but-3-enyl-4-[(3S)-3-hydroxy-3-(5-methylisoxazol-3-yl)but-1-ynyl]-2-methyl-7-oxo-1H-pyrrolo[2,3-c]pyridine-3-carboxylate] | 0.19 µM | 2.51 µM
10 | CCOC(=O)c1c(C)[nH]c2c(=O)n(C)cc(C#CC(C)(O)c3cccnc3)c12 (stereo not drawn) [Example 28, ethyl 4-[3-hydroxy-3-(3-pyridyl)but-1-ynyl]-2,6-dimethyl-7-oxo-1H-pyrrolo[2,3-c]pyridine-3-carboxylate] | 0.0525 µM | 0.234 µM
11 | CCOC(=O)c1c(C)[nH]c2c(=O)n(C)cc(C#Cc3ccccc3OC(F)(F)F)c12 [Example 57, ethyl 2,6-dimethyl-7-oxo-4-[2-[2-(trifluoromethoxy)phenyl]ethynyl]-1H-pyrrolo[2,3-c]pyridine-3-carboxylate] | 0.0596 µM | > 20 µM
12 | CCOC(=O)c1c(C)[nH]c2c(=O)n(C)cc(C#CC(O)(c3ccccc3)C(F)(F)F)c12 (single isomer, unassigned) [Example 91b, ethyl 2,6-dimethyl-7-oxo-4-(4,4,4-trifluoro-3-hydroxy-3-phenyl-but-1-ynyl)-1H-pyrrolo[2,3-c]pyridine-3-carboxylate] | 0.0422 µM | 0.184 µM
13 | CCOC(=O)c1c(C)[nH]c2c(=O)n(C)cc(C#CC(C)(O)C3CC3)c12 (single isomer, unassigned) [Example 92a, ethyl 4-(3-cyclopropyl-3-hydroxy-but-1-ynyl)-2,6-dimethyl-7-oxo-1H-pyrrolo[2,3-c]pyridine-3-carboxylate] | 0.0332 µM | 0.154 µM
14 | Cc1[nH]c2c(=O)n(C)cc(C#CC(C)(O)C3CC3)c2c1C(=O)OCc1nccs1 (stereo not drawn) [Example 109, thiazol-2-ylmethyl 4-(3-cyclopropyl-3-hydroxy-but-1-ynyl)-2,6-dimethyl-7-oxo-1H-pyrrolo[2,3-c]pyridine-3-carboxylate] | 0.0679 µM | 0.222 µM
15 | CCOC(=O)c1c(C)[nH]c2c(=O)n(C)cc(C#C[C@@H]3CCCC[C@H]3O)c12 (stereo in doubt) [Example 84, ethyl 4-[2-(2-hydroxycyclohexyl)ethynyl]-2,6-dimethyl-7-oxo-1H-pyrrolo[2,3-c]pyridine-3-carboxylate] | 0.187 µM | 2 µM
16 | CCOC(=O)c1c(C)[nH]c2c(=O)n(C)cc(C#CC(C)(O)c3cccc(C#N)c3)c12 (stereo not drawn) [Example 19, ethyl 4-[3-(3-cyanophenyl)-3-hydroxy-but-1-ynyl]-2,6-dimethyl-7-oxo-1H-pyrrolo[2,3-c]pyridine-3-carboxylate] | 0.0303 µM | 0.146 µM
17 | CCOC(=O)c1c(C)[nH]c2c(=O)n(C)cc(C#Cc3ccccc3)c12 [Example 55, ethyl 2,6-dimethyl-7-oxo-4-(2-phenylethynyl)-1H-pyrrolo[2,3-c]pyridine-3-carboxylate] | 0.074 µM | 0.457 µM

Further lines, results first:

Row | IC50 (TAF1-BD2) | IC50 (TAF1-BD1) | SMILES
18 | 0.0312 µM | 0.214 µM | Cc1[nH]c2c(=O)n(C)cc(C#CC(O)(c3ccccc3)C(F)(F)F)c2c1C(=O)OCCC#N (stereo not drawn) [Example 166, 2-cyanoethyl 2,6-dimethyl-7-oxo-4-(4,4,4-trifluoro-3-hydroxy-3-phenyl-but-1-ynyl)-1H-pyrrolo[2,3-c]pyridine-3-carboxylate]
19 | 0.243 µM | > 20 µM | C=CCCn1cc(C#C[C@@](C)(O)c2cc(C)on2)c2c(C(=O)OCc3ccccc3C)c(C)[nH]c2c1=O [Example 123, o-tolylmethyl 6-but-3-enyl-4-[(3R)-3-hydroxy-3-(5-methylisoxazol-3-yl)but-1-ynyl]-2-methyl-7-oxo-1H-pyrrolo[2,3-c]pyridine-3-carboxylate]
20 | 0.0215 µM | 0.085 µM | Cc1ccccc1COC(=O)c1c(C)[nH]c2c(=O)n(C)cc(C#CC(C)(C)O)c12 [Example 121, o-tolylmethyl 4-(3-hydroxy-3-methyl-but-1-ynyl)-2,6-dimethyl-7-oxo-1H-pyrrolo[2,3-c]pyridine-3-carboxylate]
21 | 0.0389 µM | 0.167 µM | Cc1cccc(COC(=O)c2c(C)[nH]c3c(=O)n(C)cc(C#CC(C)(C)O)c23)c1 [Example 118, m-tolylmethyl 4-(3-hydroxy-3-methyl-but-1-ynyl)-2,6-dimethyl-7-oxo-1H-pyrrolo[2,3-c]pyridine-3-carboxylate]
22 | 0.0341 µM | 0.185 µM | CCOC(=O)c1c(C)[nH]c2c(=O)n(C)cc(C#CC(O)(c3cccc(C(N)=O)c3)C(F)(F)F)c12 (stereo not drawn) [Example 197, ethyl 4-[3-(3-carbamoylphenyl)-4,4,4-trifluoro-3-hydroxy-but-1-ynyl]-2,6-dimethyl-7-oxo-1H-pyrrolo[2,3-c]pyridine-3-carboxylate]
23 | 0.153 µM | 0.517 µM | Cc1cc([C@](C)(O)C#Cc2cn(C)c(=O)c3[nH]c(C)c(-c4nnc(C)o4)c23)no1 [Example 193, 4-[(3R)-3-hydroxy-3-(5-methylisoxazol-3-yl)but-1-ynyl]-2,6-dimethyl-3-(5-methyl-1,3,4-oxadiazol-2-yl)-1H-pyrrolo[2,3-c]pyridin-7-one]
24 | 0.0881 µM | 0.725 µM | Cc1[nH]c2c(=O)n(C)cc(C#CC(O)(c3ccccc3)C(F)(F)F)c2c1-c1nnc(CCN(C)C)o1 (stereo not drawn) [Example 178, 3-[5-[2-(dimethylamino)ethyl]-1,3,4-oxadiazol-2-yl]-2,6-dimethyl-4-(4,4,4-trifluoro-3-hydroxy-3-phenyl-but-1-ynyl)-1H-pyrrolo[2,3-c]pyridin-7-one]

Reference: patent US10202378B2, “Therapeutic compounds and uses thereof” (GENENTECH, INC., priority 2015, dated 2019)
